Values quoted from earlier work as cited in patent publication US8916340B2, “Method for identifying and validating dominant T helper cell epitopes using an HLA-DM-assisted class II binding assay” (The John Hopkins University, priority 2006, dated 2014).

Target: HLA-DR1 (Homo sapiens, UniProt P01903+P01911)
Conditions: short-lived, DM-sensitive complex of peptide with HLA-DR1

HLA-DR1, sequence (P01903 26-216, other chains not shown): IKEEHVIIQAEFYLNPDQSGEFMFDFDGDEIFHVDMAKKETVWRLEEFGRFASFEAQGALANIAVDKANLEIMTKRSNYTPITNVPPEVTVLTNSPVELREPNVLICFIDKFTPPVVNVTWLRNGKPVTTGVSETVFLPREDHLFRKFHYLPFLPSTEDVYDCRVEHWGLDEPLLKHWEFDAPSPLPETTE

PKAVKQNTLKLAT [HAy308A]
t1/2 of complex with HLA-DR1: 34 min
